Test results published in patent US20250114383A1, “ADMINISTRATION OF A P[…] BY I[…]” (RESET PHARMACEUTICALS, INC., priority 2022, published 2025).

Columns and labels:
[1] = Two-compartment IV PK model fitted to published human bolus psilocybin IV data; conditions: psilocin after 1 mg psilocybin IV, fitted estimate
Description: All analysis was performed using the software R and RStudio, with models being defined using analytical and ODE solutions.
Systemic PK parameters were derived for published human bolus psilocybin IV data and human infusion simulations were performed over a range of doses to identify infusion regimens that achieved the target profile.
Human IV PK data for psilocin after psilocybin was administered was taken from Hasler et al. “Determination of psilocin and 4-hydroxyindole-3-acetic acid in plasma by HPLC-ECD and pharmacokinetic profiles of oral and intravenous psilocybin in man”. Pharm Acta Helv. 1997 June; 72(3):175-84. Model selection was performed by assessing visual fit to data and the respective model AIC's of a one compartment and two compartment IV PK model. These systemic human PK parameters were then used for human infusion simulations by simulating the PK profiles over a range of doses. The effect of two infusion rates, a faster followed by slower infusion rate was also investigated.
Pharm Acta Helv. 1997 June; 72(3):175-84. It is assumed that the generation of psilocin is instantaneous and complete once psilocybin is absorbed.
An IV two compartment model best described the IV data from FIG. 2. A two-compartment model gave a good description of the raw data capturing the Cmax and terminal phase well, FIG. 3. […]

[2] = Solubility assessment in excipients and vehicles; format: physicochemical

SMILES	k12 [1] [min⁻¹]	k21 [1] [min⁻¹]	solubility ([2]; in DMSO and NMP)	solubility as a function of pH ([2]; initial trials, 30 mg/g in aqueous vehicles)	solubility ([2]; non-micronised, in all the excipients tested)
CN(C)CCc1c[nH]c2cccc(O)c12 [psilocin, 4-hydroxy-N,N-dimethyltryptamine]	0.176	0.0489	good solubility	higher solubility at acidic pH	–
CN(C)CCc1c[nH]c2cccc(OP(=O)(O)O)c12 [psilocybin, [3-(2-dimethylaminoethyl)-1H-indol-4-yl]dihydrogen phosphate]	–	–	–	–	poor solubility
